Tests used:
[1] = biological target: T1, human recombinant α1b adrenoceptor (Homo sapiens, UniProt P35368); assay: Radioligand binding ([3H]prazosin) on membranes of CHO cells expressing cloned α1b adrenoceptor; conditions: human cloned receptor, CHO cell membranes, 0.2 nM [3H]prazosin; read-out: Affinity (Ki) α1b
T1 construct: expressed in transfected cells; host or cells: CHO cells (membranes)
T1 sequence (P35368 1-520): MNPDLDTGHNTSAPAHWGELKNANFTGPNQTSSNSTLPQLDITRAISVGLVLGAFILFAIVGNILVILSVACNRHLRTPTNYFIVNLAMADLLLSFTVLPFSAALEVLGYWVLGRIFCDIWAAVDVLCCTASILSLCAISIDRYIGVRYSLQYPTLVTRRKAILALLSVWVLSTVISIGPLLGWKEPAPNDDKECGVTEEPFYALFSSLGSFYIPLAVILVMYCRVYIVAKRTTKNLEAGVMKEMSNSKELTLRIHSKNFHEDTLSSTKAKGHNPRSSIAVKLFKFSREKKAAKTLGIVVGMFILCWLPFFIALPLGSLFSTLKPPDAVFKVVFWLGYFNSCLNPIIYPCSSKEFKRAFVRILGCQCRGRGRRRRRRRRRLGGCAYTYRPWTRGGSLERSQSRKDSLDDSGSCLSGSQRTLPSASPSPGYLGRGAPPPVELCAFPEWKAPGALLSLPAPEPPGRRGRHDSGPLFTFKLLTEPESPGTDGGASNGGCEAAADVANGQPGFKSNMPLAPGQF
Method: (§1) The determination of affinity for cloned subtypes of human α1 adrenergic receptors was performed in membranes from CHO cells (chinese hamster ovary cells) transfected by electroporation with DNA expressing the genes encoding each α1-adrenoceptor subtype, namely α1a, α1b and α1d.. Cloning and stable expression of the human α1-adrenoceptor gene were performed as previously described (Testa et al., Pharmacol. Comm. 6, 79-86 (1995)). CHO cell membranes were incubated in […] Tris pH 7.4 with 0.2 nM [^3H]prazosin, in a final volume of 1.02 ml for 30 minutes at 25°C, in the absence or presence of competing drugs (1 pM-10 µM). Non-specific binding was determined in the presence of 10 µM phentolamine. Incubation was stopped by addition of ice-cold Tris buffer and rapid filtration through 0.2% polyethyleneimine pretreated Schleicher & Schuell GF52 filters. Genomic clone G-21 coding for the human 5-HT1A-serotoninergic receptor was stably transfected in a human cell line (HeLa) (Fargin et al., J. Biol. Chem. 284, 14848-14852 (1989)). The HeLa cells were grown as monolayers in Dulbecco's modified Eagle's medium (DMEM), supplemented with 10% foetal calf serum and gentamicin (100 µg/ml), 5% CO2, at 37°C. The cells were detached from the growth flask at 95% confluence by a cell scraper and were lysed in ice-cold 5 mM Tris and 5-mM EDTA buffer (pH 7.4). The homogenates were centrifuged at 40000 x g x 20 minutes and the membranes were re-suspended in a small volume of ice-cold 5 mM Tris and 5-mM EDTA buffer (pH 7.4) and immediately frozen and stored at -70°C until use. On the experiment day, the cell membranes were re-suspended in a buffer containing 50 mM Tris (pH 7.4), 2.5 mM MgCl2, 10 µM pargyline (Fargin et al., Nature 335, 358-360 (1988)). […] The incubation was stopped by addition of ice-cold Tris buffer and rapid filtration through 0.2%-polyethyleneimine-pretreated Schleicher & Schuell filters. The inhibition of specific binding of the radioligands by the drugs was analysed to estimate the IC50 value by using the non-linear curve-fitting programme Allfit (De Lean et al., Am. J. Physiol. 235, E97-E102 (1978)). The IC50 value was converted to an affinity constant (Ki) by the equation of Cheng & Prusoff (Biochem. Pharmacol. 22, 3099-3108 (1973)). Data were expressed as mean of Ki.

Guinea pig spleen α1B = biological target: T2, Guinea pig spleen α1B (Cavia porcellus, UniProt H0WBQ9); conditions: footnote a: Eltze M., Eur. J. Pharmacol. 260, 211-220 (1994); cited from earlier work
T2 construct: from tissue; host or cells: guinea pig spleen, longitudinal strips
T2 sequence (H0WBQ9 1-520): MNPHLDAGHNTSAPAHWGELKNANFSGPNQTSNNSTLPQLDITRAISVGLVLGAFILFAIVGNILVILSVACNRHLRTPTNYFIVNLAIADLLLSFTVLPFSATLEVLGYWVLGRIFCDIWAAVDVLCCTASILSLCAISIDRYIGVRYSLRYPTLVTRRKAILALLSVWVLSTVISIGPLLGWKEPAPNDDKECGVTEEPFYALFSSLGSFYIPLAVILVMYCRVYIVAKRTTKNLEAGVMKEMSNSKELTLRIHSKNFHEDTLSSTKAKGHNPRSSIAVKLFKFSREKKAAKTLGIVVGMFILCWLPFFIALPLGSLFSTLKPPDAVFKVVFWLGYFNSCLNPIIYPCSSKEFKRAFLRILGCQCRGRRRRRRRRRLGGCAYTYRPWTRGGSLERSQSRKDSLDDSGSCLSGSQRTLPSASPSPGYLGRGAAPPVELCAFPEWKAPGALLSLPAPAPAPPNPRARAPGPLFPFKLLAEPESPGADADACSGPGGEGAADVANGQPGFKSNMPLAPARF

[2] = biological target: T3, human 5-HT1A-serotoninergic receptor (Homo sapiens, UniProt P08908); assay: Radioligand binding ([3H]8-OH-DPAT) on membranes of HeLa cells expressing cloned 5-HT1A receptor; conditions: human cloned receptor, HeLa cell membranes, 1.2 nM [3H]8-OH-DPAT; read-out: Affinity (Ki) 5-HT1A
T3 construct: expressed in transfected cells; host or cells: HeLa cells (membranes)
T3 sequence (P08908 1-422): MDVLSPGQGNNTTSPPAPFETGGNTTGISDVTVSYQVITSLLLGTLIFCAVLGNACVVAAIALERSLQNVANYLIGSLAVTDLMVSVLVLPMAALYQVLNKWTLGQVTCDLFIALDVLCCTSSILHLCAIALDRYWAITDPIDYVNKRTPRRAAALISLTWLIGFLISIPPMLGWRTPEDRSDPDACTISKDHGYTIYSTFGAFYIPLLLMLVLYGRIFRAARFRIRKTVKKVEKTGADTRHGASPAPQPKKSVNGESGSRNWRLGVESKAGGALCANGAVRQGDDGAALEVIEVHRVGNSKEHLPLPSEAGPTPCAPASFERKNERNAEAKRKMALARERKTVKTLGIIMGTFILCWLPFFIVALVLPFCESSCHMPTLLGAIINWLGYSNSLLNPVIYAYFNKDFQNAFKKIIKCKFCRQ
Method: as §1

In the case of `COc1ccccc1N1CCN(CCN2C(=O)CC3(CCCC3)CC2=O)CC1` [BMY-7378, reference compound], the Ki [1] is given as 69 nM, the “Functional affinity pKB, Guinea pig spleen α1B” value (Guinea pig spleen α1B) is given as 6.55^a and the Ki [2] is given as 0.93 nM.

Reference: patent EP1200406B1, “CYCLIC AMIDES AND IMIDES HAVING SELECTIVE ANTAGONIST ACTIVITY AT ALPHA-1D ADRENERGIC RECEPTOR” (RECORDATI INDUSTRIA CHIMICA E FARMACEUTICA S.p.a., priority 1999, dated 2001)
